Source: US20030040521A1, “Novel pyrimidin-4-enamine as fungicide” (priority 1998, published 2003)

How the values were obtained:
Venturia Naegualis = assay: Residual-protective action against Venturia inaequalis on apples; assay type: in vivo; conditions: apple cuttings, spray mixture 0.02% a.i., infected 24 hours later, evaluation 12 days after infection
Procedure: Residual-protective Action Against Venturia Naegualis on Apples
Apple cuttings with fresh shoots 10 to 20 cm long are sprayed to drip point with a spray mixture (0.02% a.i.) prepared from a wettable powder formulation of the test compound. The plants are infected 24 hours later with a conidia suspension of the fungus. The plants are then incubated for 5 days at 90 to 100% relative humidity and stood in a greenhouse for a further […] at 20 to 24° C. Evaluation of the fungal infestation is made 12 days after infection. Compounds of Tables 1-4 show good activity, preferably the compounds 1.72, 1.81, 1.152, 1.160, 2.11, 3.6, 4.3, 4.5, 4.6, 4.27, 4.29, 4.30, 4.36, 4.38, 4.39, 4.43, 4.45, 4.62, 4.80 and 4.111.

[1] = tested on: Colletotrichum Lagenarium; assay: Action against Colletotrichum lagenarium on cucumbers; assay type: in vivo; conditions: cucumber plants, spray mixture 0.002%, infected 2 days later, evaluation 8 days after infection
Procedure: Action Against Colletotrichum Lagenarium on Cucumbers After a growth period of 2 weeks, cucumber plants are sprayed with an aqueous spray mixture (concentration 0.002%) prepared from a wettable powder formulation of the test compound and infected 2 days later with a spore suspension (1.5×10^5 spores/ml) of the fungus and incubated for 36 hours at 23° C. and high humidity. Incubation is then continued at normal humidity and c. 22° C. Evaluation of the fungal infestation is made 8 days after infection.

SMILES	residual-protective activity against Venturia on apples (fungal infestation) (Venturia Naegualis)	activity against Colletotrichum lagenarium (fungal infestation) [1]	melting point [°C]
CCCOc1nc2sc(Cl)cc2c(=NCl)n1CCC [Compound 4.111]	good activity	good to excellent activity	–
CCCOc1nc2c(Br)csc2c(=NC)n1CCC [Compound 3.6]	good activity	good to excellent activity	–
CCCCc1nc2sc(Cl)cc2c(=NC(=O)OC)n1CCCC [Compound 4.119, (6-chloro-2-butyl-3-butyl-3H-thieno[2,3-d]pyrimidine-4-ylidene)carbamic acid methylester]	–	–	103 to 104
CCCOc1nc2sc(Cl)cc2c(=NCC)n1CCC [Compound 4.45]	good activity	good to excellent activity	–
CCCCN=c1c2cc(Cl)ccc2nc(OCCC)n1CCCC [Compound 1.160]	good activity	good to excellent activity	–
CCCOc1nc2sc(Cl)cc2c(=NC(C)=O)n1CCC [Compound 4.137, N-(6-chloro-2-propoxy-3-propyl-3H-thieno[2,3-d]pyrimidine-4-ylidene)acetamide]	–	–	101 to 103
CCCOc1nc2sccc2c(=N)n1CCC [Compound 4.5]	good activity	good to excellent activity	61 to 63
CCCOC1=Nc2ccc(Cl)cc2C(=CN)N1CCC [Compound 1.74, (6-chloro-2-propoxy-3-propyl-3H-quinazolin-4-ylidene)methylamine]	–	–	53 to 55
CCCCn1c(OCCC)nc2sc(Cl)cc2c1=NC [Compound 4.30]	good activity	good to excellent activity	–
CCCOc1nc2sc(Br)cc2c(=NC)n1CCC [Compound 4.38, (6-Bromo-3-propyl-2-propoxy-3H-thieno[2,3-d]pyrimidine-4-ylidene)methylamine]	good activity	good to excellent activity	–
CCCCc1nc2sc(Cl)cc2c(=NCC)n1CCC [Compound 4.43]	good activity	good to excellent activity	–
CCCOc1nc2ncc(Br)cc2c(=N)n1CCC [Compound 2.11]	good activity	good to excellent activity	–
CCCCc1nc2sccc2c(=N)n1CCC [Compound 4.3]	good activity	good to excellent activity	–
CCCCc1nc2sc(Cl)cc2c(=NC)n1CCC [Compound 4.27, (2-Butyl-6-chloro-3-propyl-3H-thieno [2,3-d]pyrimidine-4-ylidene)methylamine]	good activity	good to excellent activity	–
C#CCN=c1c2cc(Cl)sc2nc(OCCC)n1CCC [Compound 4.80]	good activity	good to excellent activity	–
C=CCN=c1c2cc(Cl)sc2nc(OCCC)n1CCC [Compound 4.62]	good activity	good to excellent activity	–
CCCCc1nc2sc(Cl)cc2c(=NC(C)=O)n1CCC [Compound 4.139, N-(6-chloro-2-butyl-3-propyl-3H-thieno[2,3-d]pyrimidine-4-ylidene)acetamide]	–	–	98 to 99
CCCCn1c(OCCC)nc2sc(Br)cc2c1=NC [Compound 4.39]	good activity	good to excellent activity	–
CCCCc1nc2ccc(Br)cc2c(=NC)n1CCC [Compound 1.81]	good activity	good to excellent activity	61 to 64
CCCCc1nc2ccc(Cl)cc2c(=NC)n1CCC [Compound 1.72]	good activity	good to excellent activity	58 to 60
CCCN=c1c2cc(Cl)ccc2nc(OCCC)n1CCC [Compound 1.152, (6-Chloro-2-propoxy-3-propyl-3H-quinazoline-4-ylidene)propylamine]	good activity	good to excellent activity	50 to 51
CCCCn1c(OCCC)nc2sccc2c1=N [Compound 4.6]	good activity	good to excellent activity	–
